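The compound was tested at five concentrations on cells cultured in 96-well plates, with a 48-hour exposure period. Here, GI50 denotes the concentration required for 50% inhibition of growth.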 Calls of active or inactive are those of the source. Rule as the data show it: active = GI50 up to about 1.1 µM and inactive = higher.
What was measured:
Assay in all cases: NCI-60 cell line screen, 48 h
LOX IMVI = test system: LOX IMVI
Malme-3M = test system: Malme-3M
OVCAR-8 = test system: OVCAR-8
SNB-19 = test system: SNB-19
SF-295 = test system: SF-295
A549 = test system: A549
HOP-62 = test system: HOP-62
DU-145 = test system: DU-145
U-251 = test system: U-251
ACHN = test system: ACHN
SK-MEL-28 = test system: SK-MEL-28
UACC-62 = test system: UACC-62
NCI-H460 = test system: NCI-H460
Hs-578T = test system: Hs-578T
SNB-75 = test system: SNB-75
OVCAR-4 = test system: OVCAR-4
SF-268 = test system: SF-268
SK-MEL-5 = test system: SK-MEL-5
UACC-257 = test system: UACC-257
MDA-N = test system: MDA-N
MCF7 = test system: MCF7
HCC 2998 = test system: HCC 2998
RXF 393 = test system: RXF 393
BT-549 = test system: BT-549
HCT-116 = test system: HCT-116
A498 = test system: A498
UO-31 = test system: UO-31
COLO 205 = test system: COLO 205
NCI-H226 = test system: NCI-H226
TK-10 = test system: TK-10
HCT-15 = test system: HCT-15
SN12C = test system: SN12C
SF-539 = test system: SF-539
HOP-92 = test system: HOP-92
SK-OV-3 = test system: SK-OV-3
MDA-MB-435 = test system: MDA-MB-435
CAKI-1 = test system: CAKI-1
HT-29 = test system: HT-29
SK-MEL-2 = test system: SK-MEL-2
CCRF-CEM = test system: CCRF-CEM
PC-3 = test system: PC-3
KM12 = test system: KM12
OVCAR-3 = test system: OVCAR-3
786-0 = test system: 786-0
NCI/ADR-RES = test system: NCI/ADR-RES
EKVX = test system: EKVX
M14 = test system: M14
NCI-H23 = test system: NCI-H23
T47D = test system: T47D
SW-620 = test system: SW-620
MDA-MB-231 = test system: MDA-MB-231
RPMI-8226 = test system: RPMI-8226
NCI-H522 = test system: NCI-H522

Cn1c(=O)c2ccccc2c2ccccc21
GI50 (LOX IMVI): 64.4 µM (inactive)
GI50 (Malme-3M): 46 µM (inactive)
GI50 (OVCAR-8): 45.9 µM (inactive)
GI50 (SNB-19): 64 µM (inactive)
GI50 (SF-295): 48.4 µM (inactive)
GI50 (A549): 53.8 µM (inactive)
GI50 (HOP-62): 65.8 µM (inactive)
GI50 (DU-145): 47.4 µM (inactive)
GI50 (U-251): 57.1 µM (inactive)
GI50 (ACHN): 33 µM (inactive)
GI50 (SK-MEL-28): 85.5 µM (inactive)
GI50 (UACC-62): 39.8 µM (inactive)
GI50 (NCI-H460): 29.3 µM (inactive)
GI50 (Hs-578T): 44.5 µM (inactive)
GI50 (SNB-75): 44.9 µM (inactive)
GI50 (OVCAR-4): 66.7 µM (inactive)
GI50 (SF-268): 40.6 µM (inactive)
GI50 (SK-MEL-5): 30.3 µM (inactive)
GI50 (UACC-257): 81.1 µM (inactive)
GI50 (MDA-N): 47.8 µM (inactive)
GI50 (MCF7): 31.5 µM (inactive)
GI50 (HCC 2998): 56.8 µM (inactive)
GI50 (RXF 393): 40.6 µM (inactive)
GI50 (BT-549): 39.6 µM (inactive)
GI50 (HCT-116): 45 µM (inactive)
GI50 (A498): 30.8 µM (inactive)
GI50 (UO-31): 42.4 µM (inactive)
GI50 (COLO 205): 34.3 µM (inactive)
GI50 (NCI-H226): 32.3 µM (inactive)
GI50 (TK-10): 34.1 µM (inactive)
GI50 (HCT-15): 40 µM
GI50 (SN12C): 49.2 µM (inactive)
GI50 (SF-539): 38 µM (inactive)
GI50 (HOP-92): 48.3 µM (inactive)
GI50 (SK-OV-3): 27.5 µM (inactive)
GI50 (MDA-MB-435): 56.8 µM (inactive)
GI50 (CAKI-1): 24.7 µM (inactive)
GI50 (HT-29): 40.2 µM (inactive)
GI50 (SK-MEL-2): 89.1 µM (inactive)
GI50 (CCRF-CEM): 66.5 µM (inactive)
GI50 (PC-3): 71.6 µM (inactive)
GI50 (KM12): 72.9 µM (inactive)
GI50 (OVCAR-3): 52.7 µM (inactive)
GI50 (786-0): 45.6 µM (inactive)
GI50 (NCI/ADR-RES): 37 µM (inactive)
GI50 (EKVX): 18.8 µM (inactive)
GI50 (M14): 49.7 µM (inactive)
GI50 (NCI-H23): 69.7 µM (inactive)
GI50 (T47D): 57.8 µM (inactive)
GI50 (SW-620): 45.2 µM (inactive)
GI50 (MDA-MB-231): 56.6 µM (inactive)
GI50 (RPMI-8226): 37.8 µM (inactive)
GI50 (NCI-H522): 36.6 µM (inactive)
